Article PMC5651824, “Membrane binding of the insertion sequence of Proteus vulgaris L-amino acid deaminase stabilizes protein structure and increases catalytic activity” (Scientific Reports, 2017)

T1: ΔN-pvLAAD (Proteus vulgaris, UniProt Q9LCB2)
T1 construct: gene LAD; N-terminal Tat peptide truncated, residues 30-471; recombinant in E. coli M15, Ni-NTA (His tag) and size exclusion
T1 sequence (Q9LCB2 30-471): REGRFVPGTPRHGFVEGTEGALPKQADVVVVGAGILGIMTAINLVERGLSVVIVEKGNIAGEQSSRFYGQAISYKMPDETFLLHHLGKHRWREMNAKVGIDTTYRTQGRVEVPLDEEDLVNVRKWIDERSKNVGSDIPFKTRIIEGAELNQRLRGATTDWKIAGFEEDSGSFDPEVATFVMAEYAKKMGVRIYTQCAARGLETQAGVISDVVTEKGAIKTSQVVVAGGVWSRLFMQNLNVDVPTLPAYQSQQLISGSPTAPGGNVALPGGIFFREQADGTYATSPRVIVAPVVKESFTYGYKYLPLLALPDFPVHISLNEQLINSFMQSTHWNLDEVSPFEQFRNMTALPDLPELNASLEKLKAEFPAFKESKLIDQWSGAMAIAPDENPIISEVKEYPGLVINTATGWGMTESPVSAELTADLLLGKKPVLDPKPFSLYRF

B1: FL-pvLAAD (Proteus vulgaris) (protein)
chain: MAISRRKFIIGGTVVAVAAGAGILTPMLTREGRFVPGTPRHGFVEGTEGALPKQADVVVVGAGILGIMTAINLVERGLSVVIVEKGNIAGEQSSRFYGQAISYKMPDETFLLHHLGKHRWREMNAKVGIDTTYRTQGRVEVPLDEEDLVNVRKWIDERSKNVGSDIPFKTRIIEGAELNQRLRGATTDWKIAGFEEDSGSFDPEVATFVMAEYAKKMGVRIYTQCAARGLETQAGVISDVVTEKGAIKTSQVVVAGGVWSRLFMQNLNVDVPTLPAYQSQQLISGSPTAPGGNVALPGGIFFREQADGTYATSPRVIVAPVVKESFTYGYKYLPLLALPDFPVHISLNEQLINSFMQSTHWNLDEVSPFEQFRNMTALPDLPELNASLEKLKAEFPAFKESKLIDQWSGAMAIAPDENPIISEVKEYPGLVINTATGWGMTESPVSAELTADLLLGKKPVLDPKPFSLYRF
notes: full-length with non-cleaved N-terminal Tat peptide (ends at residue 471); recombinant in E. coli M15, Ni-NTA (His tag) and size exclusion

Tests used:
[1] = biological target: T1, ΔN-pvLAAD; test: phenylpyruvate formation, absorbance at […] nm; format: biochemical; details: without membrane; 25 mM substrate; 50 mM potassium phosphate pH 7.5; 25 °C; 10 µM enzyme
[2] = substrate: N[C@@H](Cc1ccccc1)C(=O)O; test: purified protein; format: biochemical, Proteus vulgaris; details: without membrane, 50 mM potassium phosphate pH 7.5, 37 °C, 5 µM enzyme, 5 min

Row | Molecule | phenylpyruvate formation, absorbance at 321 nm [1] | Km [2]
1 | N[C@@H](Cc1ccccc1)C(=O)O [L-phenylalanine] | does not affect the catalytic activity of pvLAAD in solution | 
2 | B1 |  | 12.56 ± 3.19 mM
